Measurements taken from ChEMBL document CHEMBL5154690, “Discovery of a tricyclic farnesoid X receptor agonist HEC96719, a clinical candidate for treatment of non-alcoholic steatohepatitis” (Eur J Med Chem, 2022).
Active and inactive are the calls of the source. No cut-off for these calls is given here.

Tests used:
[1] = target: T1, Bile acid receptor (Homo sapiens, UniProt Q96RI1); assay: Agonist activity at FXR-LBD (unknown origin) assessed as induction of coactivator SRC-1 peptide recruitment measured by TR-FRET assay
T1 sequence (Q96RI1 whole entry): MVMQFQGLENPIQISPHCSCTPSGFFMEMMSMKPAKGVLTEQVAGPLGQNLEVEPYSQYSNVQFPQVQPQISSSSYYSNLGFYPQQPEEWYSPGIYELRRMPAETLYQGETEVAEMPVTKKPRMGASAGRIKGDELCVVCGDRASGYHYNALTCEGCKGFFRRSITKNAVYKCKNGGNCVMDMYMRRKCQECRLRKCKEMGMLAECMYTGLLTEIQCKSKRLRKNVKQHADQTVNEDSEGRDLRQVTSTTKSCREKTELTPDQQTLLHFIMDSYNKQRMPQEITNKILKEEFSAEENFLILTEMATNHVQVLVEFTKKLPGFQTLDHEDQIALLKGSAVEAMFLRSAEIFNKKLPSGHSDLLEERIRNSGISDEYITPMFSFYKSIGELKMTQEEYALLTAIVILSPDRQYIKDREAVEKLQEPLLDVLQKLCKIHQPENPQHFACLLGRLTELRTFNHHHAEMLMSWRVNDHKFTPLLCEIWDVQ

[2] = Half-life in male Sprague-Dawley rat at 5 mg/kg, po measured by LC-MS/MS analysis; format: ADME, organism-based; conditions: in vivo
[3] = Cmax in male Sprague-Dawley rat at 5 mg/kg, po measured by LC-MS/MS analysis; format: ADME, organism-based; design: dose 5 mg/kg, route po; conditions: in vivo
[4] = Oral bioavailability in male Sprague-Dawley rat at 5 mg/kg measured by LC-MS/MS analysis; format: ADME, organism-based; conditions: in vivo
[5] = tested on: Mus musculus; assay: Anti-NASH activity against high fat (HF) diet-induced nonalcoholic steatohepatitis in leptin-deficient ob/ob mouse model assessed as reduction in serum ALT level at 3 mg/kg, po administered once daily from week 5 to 10; format: functional, organism-based
[6] = tested on: Mus musculus; assay: Anti-NASH activity against high fat (HF) diet-induced nonalcoholic steatohepatitis in leptin-deficient ob/ob mouse model assessed as reduction in liver cholesterol level at 3 mg/kg, po administered once daily from week 5 to 10; format: functional, organism-based
[7] = tested on: Mus musculus; assay: Anti-NASH activity against high fat (HF) diet-induced nonalcoholic steatohepatitis in leptin-deficient ob/ob mouse model assessed as reduction in NASH activity score (NAS) at 3 mg/kg, po administered once daily from week 5 to 10; format: functional, organism-based
[8] = target: T2, Peroxisome proliferator-activated receptor delta (Homo sapiens, UniProt Q03181); assay: Agonist activity at PPARdelta (unknown origin)
T2 sequence (Q03181 whole entry): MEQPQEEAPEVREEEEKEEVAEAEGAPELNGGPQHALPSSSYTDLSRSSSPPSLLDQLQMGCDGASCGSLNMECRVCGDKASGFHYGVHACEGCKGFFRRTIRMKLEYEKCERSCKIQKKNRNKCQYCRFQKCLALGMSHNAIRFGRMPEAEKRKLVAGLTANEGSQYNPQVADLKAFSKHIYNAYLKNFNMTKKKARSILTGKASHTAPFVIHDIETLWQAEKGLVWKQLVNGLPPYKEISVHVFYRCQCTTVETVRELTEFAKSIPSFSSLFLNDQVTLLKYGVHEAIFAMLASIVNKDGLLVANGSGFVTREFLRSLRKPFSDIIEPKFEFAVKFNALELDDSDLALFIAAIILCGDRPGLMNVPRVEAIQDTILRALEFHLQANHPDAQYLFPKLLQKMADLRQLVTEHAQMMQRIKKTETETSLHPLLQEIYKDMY

[9] = tested on: Mus musculus; assay: Antifibrotic activity in C57BL/6 mouse model of CCI4-induced liver fibrosis assessed as reduction in fibrosis area at 1 mg/kg, po administered once daily for 4 weeks; format: functional, organism-based
[10] = Clearance in male C57BL/6 mouse at 2 mg/kg, iv measured by LC-MS/MS analysis; format: ADME, organism-based; conditions: in vivo
[11] = Clearance in male Beagle dog at 1 mg/kg, iv measured by LC-MS/MS analysis; format: ADME, organism-based, Canis lupus familiaris; conditions: in vivo
[12] = Half-life in male Beagle dog at 5 mg/kg, po measured by LC-MS/MS analysis; format: ADME, organism-based, Canis lupus familiaris; conditions: in vivo
[13] = Drug recovery in spleen of male Sprague-Dawley rat at 4.5 mg/kg, po administered as C14-lableled compound and assessed as radioactivity and measured at 0.25 hrs; format: ADME, organism-based; conditions: in vivo
[14] = Drug recovery in pancreas of male Sprague-Dawley rat at 4.5 mg/kg, po administered as C14-lableled compound and assessed as radioactivity and measured at 0.25 hrs; format: ADME, organism-based; conditions: in vivo
[15] = Drug recovery in heart of male Sprague-Dawley rat at 4.5 mg/kg, po administered as C14-lableled compound and assessed as radioactivity and measured at 1 hr; format: ADME, organism-based; conditions: in vivo
[16] = Drug recovery in spleen of male Sprague-Dawley rat at 4.5 mg/kg, po administered as C14-lableled compound and assessed as radioactivity and measured at 1 hr; format: ADME, organism-based; conditions: in vivo
[17] = Drug recovery in kidney of male Sprague-Dawley rat at 4.5 mg/kg, po administered as C14-lableled compound and assessed as radioactivity and measured at 1 hr; format: ADME, organism-based; conditions: in vivo
[18] = Drug recovery in spleen of male Sprague-Dawley rat at 4.5 mg/kg, po administered as C14-lableled compound and assessed as radioactivity and measured at 6 hrs; format: ADME, organism-based; conditions: in vivo, BLD = below limit of detection
[19] = Drug recovery in pancreas of male Sprague-Dawley rat at 4.5 mg/kg, po administered as C14-lableled compound and assessed as radioactivity and measured at 6 hrs; format: ADME, organism-based; conditions: in vivo, BLD = below limit of detection
[20] = Drug recovery in skin of male Sprague-Dawley rat at 4.5 mg/kg, po administered as C14-lableled compound and assessed as radioactivity and measured at 6 hrs; format: ADME, organism-based, Skin of body; conditions: in vivo, BLD = below limit of detection
[21] = Drug recovery in plasma of male Sprague-Dawley rat at 4.5 mg/kg, po administered as C14-lableled compound and assessed as radioactivity and measured at 6 hrs; format: ADME, organism-based; conditions: in vivo
[22] = Drug recovery in heart of male Sprague-Dawley rat at 4.5 mg/kg, po administered as C14-lableled compound and assessed as radioactivity and measured at 24 hrs; format: ADME, organism-based; conditions: in vivo, BLD = below limit of detection
[23] = Drug recovery in spleen of male Sprague-Dawley rat at 4.5 mg/kg, po administered as C14-lableled compound and assessed as radioactivity and measured at 24 hrs; format: ADME, organism-based; conditions: in vivo, BLD = below limit of detection
[24] = Drug recovery in kidney of male Sprague-Dawley rat at 4.5 mg/kg, po administered as C14-lableled compound and assessed as radioactivity and measured at 24 hrs; format: ADME, organism-based; conditions: in vivo
[25] = Drug recovery in skin of male Sprague-Dawley rat at 4.5 mg/kg, po administered as C14-lableled compound and assessed as radioactivity and measured at 24 hrs; format: ADME, organism-based, Skin of body; conditions: in vivo, BLD = below limit of detection
[26] = Drug recovery in plasma of male Sprague-Dawley rat at 4.5 mg/kg, po administered as C14-lableled compound and assessed as radioactivity and measured at 24 hrs; format: ADME, organism-based; conditions: in vivo, BLD = below limit of detection
[27] = Ratio of drug level in pancreas to plasma in male Sprague-Dawley rat at 4.5 mg/kg, po administered as C14-lableled compound and measured at 0.25 to 6 hrs; format: ADME, organism-based; conditions: other tissue, time 0.25-6 hrs
[28] = Mutagenecity in Salmonella typhimurium TA100 measured by Ames test; format: toxicity; conditions: salmonella enterica subsp. enterica serovar typhimurium
[29] = Mutagenecity in Salmonella typhimurium TA1535 measured by Ames test; format: toxicity; conditions: salmonella enterica subsp. enterica serovar typhimurium

## O=C(O)c1ccc2c(c1)Oc1ccc(OCc3c(-c4c(Cl)cccc4Cl)noc3C3CC3)nc1C1(CC1)C2
[1]
  EC50: 1.37 nM
[2]
  half-life: 1.6 h
[3]
  Cmax: 1090 ng/mL
[4]
  bioavailability: 50.8%
[5]
  Activity: Active
[6]
  Activity: Active
[7]
  Activity: Active
[8]
  EC50: > 10000 nM
[9]
  Activity: Active
[10]
  clearance: 160 mL/min/kg
[11]
  clearance: 18.4 mL/min/kg
[12]
  half-life: 3.42 h
[13]
  Drug recovery: 192 ngequiv/g
[14]
  Drug recovery: 177 ngequiv/g
[15]
  Drug recovery: 341 ngequiv/g
[16]
  Drug recovery: 104 ngequiv/g
[17]
  Drug recovery: 457 ngequiv/g
[18]
  Drug recovery: Bld
[19]
  Drug recovery: Bld
[20]
  Drug recovery: Bld
[21]
  Drug recovery: 27 ngequiv/g
[22]
  Drug recovery: Bld
[23]
  Drug recovery: Bld
[24]
  Drug recovery: 74.4 ngequiv/g
[25]
  Drug recovery: Bld
[26]
  Drug recovery: Bld
[27]
  Ratio: 0.8
[28]
  Activity: Non-Toxic
[29]
  Activity: Non-Toxic
